Test results from ChEMBL document CHEMBL3885861, “Open TG-GATES”.

Species on record: Rattus norvegicus
Test: Open TG-GATES - Regimen: Daily Repeat
Format: toxicity, organism-based, Sprague-Dawley
Parameters: regimen Daily Repeat, gender Male, age 6 weeks
Settings: in vivo, po, route gavage; for APTT / Bas / Eos / Fbg / Hb / Ht / Lym / MCH / MCHC / MCV / Mono / Neu / PT / Plat / RBC / Ret / WBC: tissue Blood; for KIDNEY_L / KIDNEY_R / KIDNEY_TOTAL: tissue Kidney; for LIVER: tissue Liver; for A/G / ALP / ALT / AST / BUN / CRE / Ca / Cl / DBIL / GLC / IP / K / LDH / Na / PL / RALB / TBIL / TC / TG / TP / gamma-GTP: tissue Plasma
[1] = 0 mg/kg, 72 h, dose level Control, time 3 day
[2] = 0 mg/kg, […], dose level Control, time 7 day
[3] = 0 mg/kg, […], dose level Control, time 14 day
[4] = 0 mg/kg, […], dose level Control, time 28 day
[5] = 8 mg/kg, 72 h, dose level Low, time 3 day
[6] = 8 mg/kg, […], dose level Low, time 7 day
[7] = 8 mg/kg, […], dose level Low, time 14 day
[8] = 8 mg/kg, […], dose level Low, time 28 day

NC1=NC(=O)C(c2ccccc2)O1 (centres undefined) [PEMOLINE]
TERMINAL_BW [1]: 236.5 g
APTT [1]: 16.2 s
Bas [1]: 0%
Eos [1]: 1%
Fbg [1]: 282.2 mg/dL
Hb [1]: 13.4 g/dL
Ht [1]: 39.7%
Lym [1]: 77.6%
MCH [1]: 21.7 pg
MCHC [1]: 33.7%
MCV [1]: 64.3 fL
Mono [1]: 3.4%
Neu [1]: 17.6%
PT [1]: 12.8 s
Plat [1]: 105.9 x10_4/uL
RBC [1]: 617.8 x10_4/ul
Ret [1]: 8%
WBC [1]: 90 x10_2/uL
KIDNEY_L [1]: 1 g
KIDNEY_R [1]: 1 g
KIDNEY_TOTAL [1]: 2 g
LIVER [1]: 11 g
A/G [1]: 0.9
ALP [1]: 1625 IU/L
ALT [1]: 43 IU/L
AST [1]: 70 IU/L
BUN [1]: 14.8 mg/dL
CRE [1]: 0.2 mg/dL
Ca [1]: 10.7 mg/dL
Cl [1]: 105.8 meq/L
DBIL [1]: 0.022 mg/dL
GLC [1]: 184 mg/dL
IP [1]: 7.6 mg/dL
K [1]: 3.9 meq/L
LDH [1]: 58.6 IU/L
Na [1]: 143 meq/L
PL [1]: 147.6 mg/dL
RALB [1]: 2.6 g/dL
TBIL [1]: 0.026 mg/dL
TC [1]: 86 mg/dL
TG [1]: 88.6 mg/dL
TP [1]: 5.5 g/dL
gamma-GTP [1]: 1 IU/L
TERMINAL_BW [2]: 274.2 g
TERMINAL_BW [3]: 326.9 g
TERMINAL_BW [4]: 438.2 g
APTT [2]: 17.2 s
Bas [2]: 0.2%
Eos [2]: 1%
Fbg [2]: 286.6 mg/dL
Hb [2]: 13.8 g/dL
Ht [2]: 40%
Lym [2]: 75.4%
MCH [2]: 21.6 pg
MCHC [2]: 34.4%
MCV [2]: 62.7 fL
Mono [2]: 3.4%
Neu [2]: 19.2%
PT [2]: 12.9 s
Plat [2]: 126.1 x10_4/uL
RBC [2]: 638.2 x10_4/ul
Ret [2]: 6.4%
WBC [2]: 103.3 x10_2/uL
APTT [3]: 17.8 s
Bas [3]: 0%
Eos [3]: 0.8%
Fbg [3]: 314 mg/dL
Hb [3]: 13.9 g/dL
Ht [3]: 39.7%
Lym [3]: 75.2%
MCH [3]: 21.3 pg
MCHC [3]: 35%
MCV [3]: 60.8 fL
Mono [3]: 2.2%
Neu [3]: 21.4%
PT [3]: 12.8 s
Plat [3]: 103.7 x10_4/uL
RBC [3]: 653.2 x10_4/ul
Ret [3]: 4.2%
WBC [3]: 86.4 x10_2/uL
APTT [4]: 17.4 s
Bas [4]: 0.2%
Eos [4]: 1%
Fbg [4]: 268.4 mg/dL
Hb [4]: 15.1 g/dL
Ht [4]: 42.3%
Lym [4]: 82.2%
MCH [4]: 20.2 pg
MCHC [4]: 35.7%
MCV [4]: 56.5 fL
Mono [4]: 2.6%
Neu [4]: 12.6%
PT [4]: 12.2 s
Plat [4]: 108.5 x10_4/uL
RBC [4]: 749.2 x10_4/ul
Ret [4]: 2.8%
WBC [4]: 121.3 x10_2/uL
KIDNEY_L [2]: 1.1 g
KIDNEY_R [2]: 1.1 g
KIDNEY_TOTAL [2]: 2.2 g
KIDNEY_L [3]: 1.3 g
KIDNEY_R [3]: 1.3 g
KIDNEY_TOTAL [3]: 2.6 g
KIDNEY_L [4]: 1.4 g
KIDNEY_R [4]: 1.4 g
KIDNEY_TOTAL [4]: 2.9 g
LIVER [2]: 13.2 g
LIVER [3]: 14.4 g
LIVER [4]: 18.9 g
A/G [2]: 0.9
ALP [2]: 1625.6 IU/L
ALT [2]: 41.4 IU/L
AST [2]: 68 IU/L
BUN [2]: 15.4 mg/dL
CRE [2]: 0.2 mg/dL
Ca [2]: 10.6 mg/dL
Cl [2]: 104.4 meq/L
DBIL [2]: 0.022 mg/dL
GLC [2]: 184 mg/dL
IP [2]: 7.2 mg/dL
K [2]: 3.8 meq/L
LDH [2]: 80.2 IU/L
Na [2]: 142 meq/L
PL [2]: 160.8 mg/dL
RALB [2]: 2.7 g/dL
TBIL [2]: 0.028 mg/dL
TC [2]: 84.2 mg/dL
TG [2]: 131.8 mg/dL
TP [2]: 5.8 g/dL
gamma-GTP [2]: 1 IU/L
A/G [3]: 0.8
ALP [3]: 1289.6 IU/L
ALT [3]: 46.2 IU/L
AST [3]: 71.8 IU/L
BUN [3]: 15.2 mg/dL
CRE [3]: 0.2 mg/dL
Ca [3]: 11.2 mg/dL
Cl [3]: 105.4 meq/L
DBIL [3]: 0.012 mg/dL
GLC [3]: 180.2 mg/dL
IP [3]: 8.3 mg/dL
K [3]: 3.6 meq/L
LDH [3]: 66.8 IU/L
Na [3]: 144.6 meq/L
PL [3]: 144.6 mg/dL
RALB [3]: 2.7 g/dL
TBIL [3]: 0.018 mg/dL
TC [3]: 78.8 mg/dL
TG [3]: 88.2 mg/dL
TP [3]: 6 g/dL
gamma-GTP [3]: 1 IU/L
A/G [4]: 0.8
ALP [4]: 980.4 IU/L
ALT [4]: 41.2 IU/L
AST [4]: 61.6 IU/L
BUN [4]: 16.6 mg/dL
CRE [4]: 0.2 mg/dL
Ca [4]: 11.4 mg/dL
Cl [4]: 104 meq/L
DBIL [4]: 0.018 mg/dL
GLC [4]: 182.2 mg/dL
IP [4]: 6.9 mg/dL
K [4]: 3.7 meq/L
LDH [4]: 68.8 IU/L
Na [4]: 143 meq/L
PL [4]: 160.2 mg/dL
RALB [4]: 2.8 g/dL
TBIL [4]: 0.022 mg/dL
TC [4]: 77.4 mg/dL
TG [4]: 215 mg/dL
TP [4]: 6.3 g/dL
gamma-GTP [4]: 1 IU/L
TERMINAL_BW [5]: 232.2 g
APTT [5]: 17.3 s
Bas [5]: 0%
Eos [5]: 1.2%
Fbg [5]: 275 mg/dL
Hb [5]: 13.5 g/dL
Ht [5]: 39.8%
Lym [5]: 77%
MCH [5]: 21.5 pg
MCHC [5]: 33.8%
MCV [5]: 63.5 fL
Mono [5]: 3.6%
Neu [5]: 18.2%
PT [5]: 12.8 s
Plat [5]: 112.1 x10_4/uL
RBC [5]: 627.2 x10_4/ul
Ret [5]: 7.3%
WBC [5]: 82.8 x10_2/uL
KIDNEY_L [5]: 1 g
KIDNEY_R [5]: 1 g
KIDNEY_TOTAL [5]: 1.9 g
LIVER [5]: 11.1 g
A/G [5]: 0.9
ALP [5]: 1587 IU/L
ALT [5]: 45.6 IU/L
AST [5]: 70.6 IU/L
BUN [5]: 15 mg/dL
CRE [5]: 0.2 mg/dL
Ca [5]: 10.8 mg/dL
Cl [5]: 105.6 meq/L
DBIL [5]: 0.018 mg/dL
GLC [5]: 182 mg/dL
IP [5]: 8.2 mg/dL
K [5]: 3.7 meq/L
LDH [5]: 58.8 IU/L
Na [5]: 143.6 meq/L
PL [5]: 155.8 mg/dL
RALB [5]: 2.7 g/dL
TBIL [5]: 0.03 mg/dL
TC [5]: 93 mg/dL
TG [5]: 84.4 mg/dL
TP [5]: 5.6 g/dL
gamma-GTP [5]: 1 IU/L
TERMINAL_BW [6]: 267.2 g
TERMINAL_BW [7]: 337.4 g
TERMINAL_BW [8]: 432.5 g
APTT [6]: 17.3 s
Bas [6]: 0.2%
Eos [6]: 1%
Fbg [6]: 286.6 mg/dL
Hb [6]: 13.8 g/dL
Ht [6]: 40.5%
Lym [6]: 79.4%
MCH [6]: 21.6 pg
MCHC [6]: 34.1%
MCV [6]: 63.2 fL
Mono [6]: 3%
Neu [6]: 16%
PT [6]: 12.8 s
Plat [6]: 119.7 x10_4/uL
RBC [6]: 641.4 x10_4/ul
Ret [6]: 5.9%
WBC [6]: 119.6 x10_2/uL
APTT [7]: 17.3 s
Bas [7]: 0%
Eos [7]: 1%
Fbg [7]: 297 mg/dL
Hb [7]: 14.2 g/dL
Ht [7]: 40.8%
Lym [7]: 74.8%
MCH [7]: 21.4 pg
MCHC [7]: 34.8%
MCV [7]: 61.3 fL
Mono [7]: 2.4%
Neu [7]: 21.4%
PT [7]: 12.7 s
Plat [7]: 109.6 x10_4/uL
RBC [7]: 665.6 x10_4/ul
Ret [7]: 4.6%
WBC [7]: 83 x10_2/uL
APTT [8]: 17.5 s
Bas [8]: 0%
Eos [8]: 1%
Fbg [8]: 251.8 mg/dL
Hb [8]: 15.2 g/dL
Ht [8]: 42%
Lym [8]: 70%
MCH [8]: 20.3 pg
MCHC [8]: 36.2%
MCV [8]: 56.2 fL
Mono [8]: 3.4%
Neu [8]: 24.6%
PT [8]: 12.5 s
Plat [8]: 97.4 x10_4/uL
RBC [8]: 746.4 x10_4/ul
Ret [8]: 3.1%
WBC [8]: 106.7 x10_2/uL
KIDNEY_L [6]: 1.2 g
KIDNEY_R [6]: 1.1 g
KIDNEY_TOTAL [6]: 2.3 g
KIDNEY_L [7]: 1.3 g
KIDNEY_R [7]: 1.3 g
KIDNEY_TOTAL [7]: 2.6 g
KIDNEY_L [8]: 1.6 g
KIDNEY_R [8]: 1.6 g
KIDNEY_TOTAL [8]: 3.2 g
LIVER [6]: 12.4 g
LIVER [7]: 14.9 g
LIVER [8]: 17.3 g
A/G [6]: 0.9
ALP [6]: 1719 IU/L
ALT [6]: 45 IU/L
AST [6]: 69.8 IU/L
BUN [6]: 15.8 mg/dL
CRE [6]: 0.2 mg/dL
Ca [6]: 10.5 mg/dL
Cl [6]: 103.8 meq/L
DBIL [6]: 0.014 mg/dL
GLC [6]: 180.8 mg/dL
IP [6]: 7.6 mg/dL
K [6]: 3.9 meq/L
LDH [6]: 62.6 IU/L
Na [6]: 142 meq/L
PL [6]: 152.6 mg/dL
RALB [6]: 2.6 g/dL
TBIL [6]: 0.026 mg/dL
TC [6]: 84.6 mg/dL
TG [6]: 94.4 mg/dL
TP [6]: 5.7 g/dL
gamma-GTP [6]: 1 IU/L
A/G [7]: 0.8
ALP [7]: 1588.8 IU/L
ALT [7]: 47.4 IU/L
AST [7]: 70.4 IU/L
BUN [7]: 14.8 mg/dL
CRE [7]: 0.2 mg/dL
Ca [7]: 11.1 mg/dL
Cl [7]: 105.6 meq/L
DBIL [7]: 0.014 mg/dL
GLC [7]: 179.2 mg/dL
IP [7]: 8.2 mg/dL
K [7]: 3.7 meq/L
LDH [7]: 75 IU/L
Na [7]: 144.6 meq/L
PL [7]: 150.4 mg/dL
RALB [7]: 2.7 g/dL
TBIL [7]: 0.028 mg/dL
TC [7]: 80 mg/dL
TG [7]: 117 mg/dL
TP [7]: 5.8 g/dL
gamma-GTP [7]: 1 IU/L
A/G [8]: 0.8
ALP [8]: 966.8 IU/L
ALT [8]: 41.4 IU/L
AST [8]: 63.2 IU/L
BUN [8]: 15.2 mg/dL
CRE [8]: 0.2 mg/dL
Ca [8]: 11.4 mg/dL
Cl [8]: 104.8 meq/L
DBIL [8]: 0.016 mg/dL
GLC [8]: 192.2 mg/dL
IP [8]: 7.5 mg/dL
K [8]: 3.9 meq/L
LDH [8]: 61.8 IU/L
Na [8]: 142.6 meq/L
PL [8]: 154.6 mg/dL
RALB [8]: 2.8 g/dL
TBIL [8]: 0.028 mg/dL
TC [8]: 84.4 mg/dL
TG [8]: 121.4 mg/dL
TP [8]: 6.1 g/dL
gamma-GTP [8]: 1 IU/L
